From PubChem BioAssay (NCI)
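Protocol summary: plate cells (96-well), add compound at 5 concentrations, incubate 48 h, interpolate endpoints linearly. At the TGI there is no net growth.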

What was measured:
Assay in all cases: NCI tumour cell line growth inhibition, 48 h
XF 498 CNS = system: XF 498 CNS
P388 leukemia = system: P388 leukemia
DMS 273 small cell lung = system: DMS 273 small cell lung
P388/ADR leukemia = system: P388/ADR leukemia
SNB-78 CNS = system: SNB-78 CNS
HOP-18 NSCLC = system: HOP-18 NSCLC
DMS 114 small cell lung = system: DMS 114 small cell lung
M19-MEL melanoma = system: M19-MEL melanoma
SN12K1 renal = system: SN12K1 renal
LXFL 529 NSCLC = system: LXFL 529 NSCLC
RXF-631 renal = system: RXF-631 renal
DU-145 prostate = system: DU-145 prostate

SMILES: CNC(=O)OCc1nc(SC)n(C)c1CO
- TGI (XF 498 CNS): > 100 µM
- TGI (P388 leukemia): > 100 µM
- TGI (DMS 273 small cell lung): > 100 µM
- TGI (P388/ADR leukemia): > 100 µM
- TGI (SNB-78 CNS): > 100 µM
- TGI (HOP-18 NSCLC): > 100 µM
- TGI (DMS 114 small cell lung): > 100 µM
- TGI (M19-MEL melanoma): > 100 µM
- TGI (SN12K1 renal): > 100 µM

SMILES: CC(C)(C)[Si](OC1CCOC1=O)(c1ccccc1)c1ccccc1 (centres undefined)
- TGI (XF 498 CNS): 24.2 µM
- TGI (LXFL 529 NSCLC): > 100 µM
- TGI (SNB-78 CNS): > 100 µM
- TGI (HOP-18 NSCLC): 80.9 µM
- TGI (RXF-631 renal): 98.8 µM
- TGI (M19-MEL melanoma): 39.1 µM

SMILES: COc1ccccc1/C=C/c1ccnc2ccccc12
- TGI (DU-145 prostate): 30.8 µM

SMILES: COc1cc(C(=O)NC2CCc3cc(OC)c(OC)c(OC)c3-c3ccc(OC)c(=O)cc32)cc(OC)c1OC (centres undefined)
- TGI (XF 498 CNS): 16 µM
- TGI (LXFL 529 NSCLC): 44.2 µM
- TGI (DMS 273 small cell lung): > 100 µM
- TGI (SNB-78 CNS): > 100 µM
- TGI (HOP-18 NSCLC): > 100 µM
- TGI (DMS 114 small cell lung): 0.1 µM
- TGI (M19-MEL melanoma): > 100 µM

SMILES: Cc1c2ccccc2c(C2C3C(=O)N(c4ccc(Br)cc4)C(=O)C3ON2C(C(N)=O)c2ccccc2)c2ccccc12 (centres undefined)
- TGI (DU-145 prostate): 26.7 µM

SMILES: CC(=O)Oc1ccccc1
- TGI (LXFL 529 NSCLC): > 100 µM
- TGI (DMS 273 small cell lung): > 100 µM
- TGI (RXF-631 renal): > 100 µM
- TGI (DMS 114 small cell lung): > 100 µM
- TGI (M19-MEL melanoma): > 100 µM

SMILES: C[C@@H]1C[C@H]2[C@@H]3CCC4=CC(=O)C=C[C@]4(C)[C@@]3(F)[C@@H](O)C[C@]2(C)[C@@]1(O)C(=O)CO
- TGI (LXFL 529 NSCLC): > 100 µM
- TGI (DMS 114 small cell lung): > 100 µM
- TGI (M19-MEL melanoma): > 100 µM

SMILES: Cc1ccc(O)c(Cc2nc3ccccc3nc2-c2cccc(Cl)c2)c1
- TGI (DU-145 prostate): > 100 µM

SMILES: O=C(C=P(c1ccccc1)(c1ccccc1)c1ccccc1)c1ccc(-c2cccs2)cc1
- TGI (DU-145 prostate): 22.3 µM

SMILES: CCCCc1ccc(N=C(N)N)cc1
- TGI (DU-145 prostate): > 100 µM

SMILES: Cc1ccc2c(c1)SC1=Nc3sc4cc(C)ccc4[n+]3CN12
- TGI (DU-145 prostate): > 100 µM

SMILES: c1ccc2c(CSCc3cccc4ccccc34)cccc2c1
- TGI (DU-145 prostate): > 100 µM

SMILES: CCCCN1C(=O)C2Cc3c([nH]c4ccccc34)C(c3cccc(O)c3)N2C1=O (centres undefined)
- TGI (DU-145 prostate): 33.1 µM

SMILES: C[C@H]1C[C@@H]2[C@H]([C@@H](O)C[C@@]3(C)[C@H]2CC[C@]3(O)C(=O)CO)[C@@]2(C)C=CC(=O)C=C12
- TGI (DMS 273 small cell lung): > 100 µM
- TGI (HOP-18 NSCLC): > 100 µM
- TGI (DMS 114 small cell lung): > 100 µM
- TGI (M19-MEL melanoma): > 100 µM

SMILES: CC(=O)Nc1ccc2c(c1)/C(=C\c1ccc([N+](C)(C)C)cc1)c1ccccc1-2
- TGI (DU-145 prostate): > 100 µM

SMILES: CCOC(=O)c1cnc(N(C)C)nc1SC(=N)N
- TGI (DU-145 prostate): > 100 µM
